Literature values as cited in patent US20130034605A1, “EXTENDED RELEASE PHARMACEUTICAL COMPOSITIONS CONTAINING PALIPERIDONE” (MICRO LABS LIMITED, priority 2011, published 2013).
Like-named read-outs stand apart in the source and are kept apart here.

- Solubility (in 0.1 N hydrochloric acid): soluble
- Solubility (in methanol): soluble
- Solubility (in methylene chloride): freely soluble
- Solubility (in water): practically insoluble
SMILES: Cc1nc2n(c(=O)c1CCN1CCC(c3noc4cc(F)ccc34)CC1)CCCC2O (racemic) [Paliperidone, (RS)-3-[2-[4-(6-fluorobenzo[d]isoxazol-3-yl)-1-piperidyl]ethyl]-7-hydroxy-4-methyl-1,5-diazabicyclo[4.4.0]deca-3,5-dien-2-one]
